Experimental findings from EP3478687B1 (Daewoong Pharmaceutical Co., Ltd., priority 2016, dated 2018) are described below.

What is called IC50 is the point on the concentration scale where inhibition reaches its midpoint.

Assay [1] concerns the target T1, Recombinant purified human BTK (Homo sapiens, UniProt Q06187).
T1 construct: purchased Promega V9071
Description: BTK kinase inhibitory activity, ADP-Glo kinase assay (Promega V9071). The class given is biochemical. Conditions: ATP 10 uM, 8 ng BTK per reaction, 1 hour 30 °C, chemiluminescence. In outline: (§1)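 Recombinant human kinases in Tris pH 7.5 buffer with MgCl2, BSA and DTT (MnCl2 added for BTK), 4 ng JAK3 or 8 ng BTK per reaction. Poly(Glu4,Tyr1) 0.2 µg/µL with 5 µM (JAK3) or 10 µM (BTK) ATP, 1% DMSO, 1 h at 30 °C. ADP-Glo luminescence used to derive IC50.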
(In ADP-Glo the light output rises with the ADP produced.)

In assay [2] the target is T2, Recombinant purified human JAK3 (Homo sapiens, UniProt P52333).
T2 construct: purchased Promega V9441
T2 sequence (P52333 1-1124): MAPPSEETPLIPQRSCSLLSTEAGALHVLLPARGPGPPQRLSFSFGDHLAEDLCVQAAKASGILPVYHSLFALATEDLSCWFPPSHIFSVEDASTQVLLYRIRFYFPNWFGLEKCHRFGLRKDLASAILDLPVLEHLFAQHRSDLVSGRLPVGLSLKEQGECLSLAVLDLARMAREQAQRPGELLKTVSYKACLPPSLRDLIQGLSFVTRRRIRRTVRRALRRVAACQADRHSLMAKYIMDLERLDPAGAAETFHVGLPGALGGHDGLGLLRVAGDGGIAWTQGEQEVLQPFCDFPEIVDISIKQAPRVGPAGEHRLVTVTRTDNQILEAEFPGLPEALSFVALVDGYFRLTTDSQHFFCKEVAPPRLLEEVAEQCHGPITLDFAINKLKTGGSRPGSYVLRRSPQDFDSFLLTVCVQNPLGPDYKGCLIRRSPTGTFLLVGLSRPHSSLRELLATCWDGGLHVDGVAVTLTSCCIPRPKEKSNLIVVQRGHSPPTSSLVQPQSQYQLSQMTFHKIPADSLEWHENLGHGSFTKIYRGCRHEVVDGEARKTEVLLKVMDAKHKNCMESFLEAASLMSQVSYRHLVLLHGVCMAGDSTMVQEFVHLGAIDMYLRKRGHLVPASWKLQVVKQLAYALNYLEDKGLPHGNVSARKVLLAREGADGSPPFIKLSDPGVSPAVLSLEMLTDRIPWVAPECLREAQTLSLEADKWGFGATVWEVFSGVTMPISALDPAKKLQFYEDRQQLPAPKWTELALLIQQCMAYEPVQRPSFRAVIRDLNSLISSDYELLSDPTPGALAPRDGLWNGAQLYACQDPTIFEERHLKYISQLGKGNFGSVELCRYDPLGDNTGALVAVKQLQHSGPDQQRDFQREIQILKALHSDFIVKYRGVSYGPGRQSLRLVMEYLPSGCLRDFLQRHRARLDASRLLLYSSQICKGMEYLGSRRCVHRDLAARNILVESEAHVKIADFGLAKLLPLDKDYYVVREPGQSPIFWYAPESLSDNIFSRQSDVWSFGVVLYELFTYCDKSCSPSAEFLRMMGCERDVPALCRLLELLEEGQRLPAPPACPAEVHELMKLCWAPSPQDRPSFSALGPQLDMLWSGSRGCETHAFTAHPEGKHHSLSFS
The assay can be described thus: JAK3 kinase inhibitory activity, ADP-Glo kinase assay (Promega V9441). It counts as biochemical. Conditions: ATP 5 uM, 4 ng JAK3 per reaction, 1 hour 30 °C, chemiluminescence. In outline: as §1

T1 sequence (Q06187 whole entry): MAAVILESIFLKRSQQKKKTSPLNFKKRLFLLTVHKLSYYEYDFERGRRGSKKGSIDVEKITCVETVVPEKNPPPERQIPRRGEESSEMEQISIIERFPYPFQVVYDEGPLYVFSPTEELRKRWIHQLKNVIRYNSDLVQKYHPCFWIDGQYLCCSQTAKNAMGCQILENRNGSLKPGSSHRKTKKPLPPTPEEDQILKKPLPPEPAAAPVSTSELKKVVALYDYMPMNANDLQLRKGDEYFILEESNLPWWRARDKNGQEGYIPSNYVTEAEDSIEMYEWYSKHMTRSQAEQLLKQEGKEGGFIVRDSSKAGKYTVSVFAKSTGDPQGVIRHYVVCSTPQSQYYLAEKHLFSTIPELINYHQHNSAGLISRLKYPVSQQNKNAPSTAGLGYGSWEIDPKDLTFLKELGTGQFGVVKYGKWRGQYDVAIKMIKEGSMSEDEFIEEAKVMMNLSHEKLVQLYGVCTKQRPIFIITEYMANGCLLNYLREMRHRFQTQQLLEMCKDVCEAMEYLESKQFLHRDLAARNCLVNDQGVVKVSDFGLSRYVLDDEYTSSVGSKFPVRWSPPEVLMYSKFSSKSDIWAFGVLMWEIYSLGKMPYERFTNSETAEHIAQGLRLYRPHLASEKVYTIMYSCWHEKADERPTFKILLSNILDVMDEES

`C=CC(=O)N1CCC[C@@H](Nc2nc(Nc3ccc(N4CCOCC4)c(F)c3)nc3[nH]cc(Cl)c23)C1` [Example 98, (R)-1-(3-((5-chloro-2-((3-fluoro-4-morpholinophenyl)amino)-7H-pyrrolo [2,3-d]pyrimidin-4-yl)amino)piperidin-1-yl)prop-2-en-1-one]: the IC50 in assay [1] came to 14.1 nM; in assay [2], 2.4 nM.
The like results for `C=CC(=O)N1CCC[C@@H](N(C)c2nc(Nc3cnn(CC)c3)nc3[nH]ccc23)C1` [Example 101, (R)-1-(3-((2-((1-ethyl-1H-pyrazol-4-yl)amino)-7H-pyrrolo[2,3-d]pyrimidin-4-yl)(methyl)amino)piperidin-1-yl)prop-2-en-1-one] were, in that order, 7.4 nM and 1.8 nM.
The like results for `C=CC(=O)N1CCC[C@@H](N(C)c2nc(Nc3cnoc3)nc3[nH]ccc23)C1` [Example 102] were, in that order, 146 nM and 13.2 nM.
Consider `C=CC(=O)N1CCC[C@@H](N(C)c2nc(Nc3cnn(CC(F)F)c3)nc3[nH]ccc23)C1` [Example 103, (R)-1-(3-((2-((1-(2,2-difluoroethyl)-1H-pyrazol-4-yl)amino)-7H-pyrrolo[2,3-d]pyrimidin-4-yl)(methyl)amino)piperidin-1-yl)prop-2-en-1-one], for which the IC50 in assay [1] is 21 nM; in assay [2] it was 1.3 nM.
The like results for `C=CC(=O)N1CCC[C@@H](Sc2nc(Nc3cnn(CC)c3)nc3[nH]ccc23)C1` [Example 104, (R)-1-(3-((2-((1-ethyl-1H-pyrazol-4-yl)amino)-7H-pyrrolo[2,3-d]pyrimidin-4-yl)thio)piperidin-1-yl)prop-2-en-1-one] were, in that order, 2.7 nM and 0.3 nM.
Regarding `C=CC(=O)N1CCC[C@@H](Sc2nc(Nc3cnn(CC)c3)nc3[nH]ncc23)C1` [Example 105, (R)-1-(3-((6-((1-ethyl-1H-pyrazol-4-yl)amino)-1H-pyrazolo [3,4-d]pyrimidin-4-yl)thio)piperidin-1-yl)prop-2-en-1-one], the figures for the IC50 in assay [1] and in assay [2] were 1.9 nM and 3.6 nM, respectively.
`C=CC(=O)N1CC[C@@H](C)[C@@H](Nc2nc(Nc3cnn(CC)c3)nc3[nH]ncc23)C1` [Example 106, 1-((3R,4R)-3-((6-((1-ethyl-1H-pyrazol-4-yl)amino)-1H-pyrazolo [3,4-d]pyrimidin-4-yl)amino)-4-methylpiperidin-1-yl)prop-2-en-1-one]: the half-inhibitory concentration (IC50) in assay [1] was found to be 1.8 nM; in assay [2] it was 54.8 nM.
The like results for `C=CC(=O)N1CCC[C@@H](Sc2nc(Nc3cnn(CC(F)F)c3)nc3[nH]nc(Cl)c23)C1` [Example 108] were, in that order, 1.3 nM and 0.6 nM.
As for `C=CC(=O)N1CCC[C@@H](Sc2nc(Nc3cnn(C4CC4)c3)nc3[nH]nc(Cl)c23)C1` [Example 110], the IC50 in assay [1] was determined as 1.4 nM; in assay [2], 1.7 nM.
The like results for `C=CC(=O)N1CCC[C@@H](Sc2nc(Nc3cnn(CC)c3)nc3[nH]nc(Cl)c23)C1` [Example 111, (R)-1-(3-((3-chloro-6-((1-ethyl-1H-pyrazol-4-yl)amino)-1H-pyrazolo[3,4-d]pyrimidin-4-yl)thio)piperidin-1-yl)prop-2-en-1-one] were, in that order, 1.3 nM and 1.1 nM.
The like results for `C=CC(=O)N1CCC[C@@H](Sc2nc(Nc3cnn(C(C)(C)C)c3)nc3[nH]nc(Cl)c23)C1` [Example 112, (R)-1-(3-((6-((1-(tert-butyl)-1H-pyrazol-4-yl)amino)-3-chloro-1H-pyrazolo [3,4-d]pyrimidin-4-yl)thio)piperidin-1-yl)prop-2-en-1-one] were, in that order, 1.8 nM and 1.6 nM.
The like results for `C=CC(=O)N1CCC[C@@H](Sc2nc(Nc3cnn(CC(C)C)c3)nc3[nH]nc(Cl)c23)C1` [Example 113, (R)-1-(3-((3-chloro-6-((1-isobutyl-1H-pyrazol-4-yl)amino)-1H-pyrazolo[3,4-d]pyrimidin-4-yl)thio)piperidin-1-yl)prop-2-en-1-one] were, in that order, 2.3 nM and 2.8 nM.
